How the values were obtained:
Type in all cases: functional, cell-based
A549 [1] = assay: Cytotoxicity against human A549 cells after 2 hrs; conditions: A549, 2 h
A549 [2] = assay: Cytotoxicity against human A549 cells after 72 hrs; conditions: A549, 72 h
A549 [3] = assay: Cytotoxicity against human A549 cells after 9 hrs; conditions: A549, 9 h
A549 [4] = assay: Cytotoxicity against human A549 cells; conditions: TDE = time-dependent effect

| SMILES | IC50 (A549 [1]) [µM] | IC50 (A549 [2]) [µM] | IC50 (A549 [3]) [µM] | Activity (A549 [4]) |
| --- | --- | --- | --- | --- |
| CC1(C)CC[C@]2(CO)[C@H](O)C[C@]3(C)C(=CC[C@@H]4[C@@]5(C)CC[C@H](O[C@@H]6OC[C@H](O)[C@H](O)[C@H]6O[C@@H]6O[C@H](CO)[C@@H](O)[C@H](O)[C@H]6O[C@@H]6OC[C@@H](O)[C@H](O)[C@H]6O)[C@@](C)(CO)[C@@H]5CC[C@]43C)[C@H]2C1 [HETERGENOSIDE B] | 26.4 | 19.1 | – | – |
| CC1(C)CC[C@]2(CO)[C@H](O)C[C@]3(C)C(=CC[C@@H]4[C@@]5(C)CC[C@H](O[C@@H]6OC[C@H](O)[C@H](O)[C@H]6O[C@@H]6O[C@H](CO)[C@@H](O)[C@H](O)[C@H]6O)[C@@](C)(CO)[C@@H]5CC[C@]43C)[C@H]2C1 [HETEROGENOSIDE A] | – | 24.5 | > 100 | tde |

Source: ChEMBL document CHEMBL1154672, “Four new cytotoxic oligosaccharidic derivatives of 12-oleanene from Lysimachia heterogenea Klatt” (Bioorg Med Chem Lett, 2009)
